Assay results as given in paper PMC9569529, “Safe and Efficient Sigma1 Ligand: A Potential Drug Candidate for Multiple Sclerosis” (International Journal of Molecular Sciences, 2022).
Values joined by “and” are separate entries in the source; they are usually repeats but may differ in a detail not shown here. Equal values may be shown once. Read-outs that look alike come from different tables or passages of the source.

Tests used:
[1] = tested on: SH-SY5Y; experiment: Cytotoxicity in human neuroblastoma cell line (MTT/MTS); type: cell-based; settings: 72 h
Description: Toxicity analysis was performed in the human neuroblastoma cell line (SH-SY5Y), which was cultured in Dulbecco’s Modified Eagle Medium (DMEM, Gibco) supplemented with 2 mM L-glutamine (Invitrogen, Thermo Fisher Scientific Inc. Waltham, MA, USA), […] streptomycin (Invitrogen), 100 IU/mL penicillin (Invitrogen), 1 mM non-essential amino acids (Invitrogen) and 10% (v/v) heat inactivated fetal bovine serum (Sigma Aldrich, Burlington, MA, USA) and grown at 37 °C in a humidified incubator with 5% CO2. […] After 72 h of incubation, cell growth was estimated by the colorimetric MTT assay (CellTiter 96® aqueous one solution cell proliferation assay-MTS, Promega, Madison, WI, USA) according to the manufacturer’s protocol. Absorbance was read at 490 nm and results were expressed as % from the control condition considered as 100%.

[2] = tested on: T1, P-gp; experiment: P-gp substrate assessment, Caco-2 with and without verapamil; type: in vitro ADME; settings: human
T1 construct: in the Caco-2 cell line with and without verapamil; host or cells: Caco-2
Description: (§1) The compound was classically evaluated at 10 µM for all the ADME analyses. Bidirectional permeability (apical A to basolateral B pH 6.5/7.4 and basolateral B to apical A pH 7.4/6.5) was assessed in the epithelial colorectal adenocarcinoma cell line (Caco-2 cell line). Results were expressed as × 10^−6cm/s (Papp) and as % recovery. Efflux ratio, i.e., Papp(B-A)/Papp(A-B), was calculated. Plasma protein binding was analyzed by HPLC-MS/MS after 4-h incubation at 37 °C, as described by Banker et al.. Concentration was evaluated by LC/MS-MS. CYP inhibition was performed in human liver microsomes as described in [61]. Analysis of the respective metabolites. was performed by HPLC-MS/MS. Transporter inhibition analysis was also performed in overexpressing cell lines. Respective metabolites for each specific transporter substrate were analyzed by fluorometry or scintillation counting and % inhibition of control values were calculated. P-glycoprotein transporter substrate assessment was performed by bidirectional permeability analysis (apical A to basolateral B pH 7.4/7.4 and basolateral B to apical A pH 7.4/7.4) in the Caco-2 cell line with and without verapamil, as described in [59]. Results were expressed as ×10^−6 cm/s (Papp) and as % recovery. The efflux ratio, i.e., Papp(B-A)/Papp(A-B), was calculated. CYP450 induction characterization was performed on human hepatocytes. The mRNA levels of 7 different CYPs were analyzed by qPCR, as described in [72]. The compound was evaluated at 1, 10 and 100 µM. Fold-induction values were determined and compared to cut-off values, as defined for each CYP isozyme in each hepatocyte lot.

[3] = target: T2, P-gp (Homo sapiens, UniProt P08183); experiment: as above; type: in vitro ADME
T2 construct: in the Caco-2 cell line with and without verapamil; host or cells: Caco-2
Description: as §1

[4] = tested on: Caco-2 cell line; experiment: Bidirectional permeability in Caco-2 (pH 6.5/7.4); type: in vitro ADME, human; settings: Papp(B-A)/Papp(A-B), pH 6.5/7.4
Description: as §1

[5] = tested on: 40 different receptors relevant to CNS disease; parameters: method as in PMID 28756263; settings: 40 receptors relevant to CNS disease; cited from earlier work
[6] = Pharmacokinetic study in plasma and brain; type: in vivo, male C57BL/6 mice; settings: 1 mg/kg; for Brain/Plasma / Kp at 0.5 h: at 30 min; for Brain AUC t^∞/AUC ∞: unit assumed; for Kp at 0.5 h / Tmax / half-life / concentration at 30 min / bioavailability: male, C57BL/6, mouse
Description: A pharmacokinetic (PK) study was performed by Eurofins Cerep (Poitiers, France) in male C57BL/6 mice (20–30 g) following i.v. and p.o. administrations of compound 7i at 1 mg/kg.
The plasma and perfused brain samples were collected at 0, 30, 60, 120, 240 and 280 min after treatment administration (n = 3 animal/time point). Animals were terminated under inhalant CO2 euthanasia. Blood was collected via cardiac puncture. Aliquots were collected in tubes coated with lithium heparin and centrifuged. The plasma was harvested and kept frozen at −70 °C until further processing. Immediately following the collection of the blood sample, animals were perfused with heparinized saline (10 IU/mL). The brain was collected, rinsed with saline to remove residual blood, weighed and stored at −70 °C until further analysis.
Plasma samples were processed using acetonitrile precipitation and analyzed by LC-MS/MS. A plasma calibration curve was generated. Aliquots of drug-free plasma were spiked with compound 7i at the specified concentration levels. The spiked plasma samples were processed together with the unknown plasma samples using the same procedure.
Each brain was homogenized for 10 s on ice in a proper volume of cold phosphate-buffered saline (PBS) at pH 7.4. The homogenate was centrifuged at 5400× g for 15 min at 4 °C. Supernatants were subsequently processed using acetonitrile precipitation and analyzed by LC-MS/MS. A brain calibration curve was generated. Aliquots of drug-free brain homogenate were spiked with compound 7i at the specified concentration levels. The spiked brain homogenate samples were processed together with the unknown brain homogenate samples using the same procedure.
Concentrations of compound 7i in the unknown plasma and brain samples were determined using the respective calibration curve. The reportable linear range of the assay was determined, along with the lower limit of quantitation (LLQ).
The exposure levels of compound 7i in the plasma and brain samples as determined by LC-MS/MS were reported (ng/mL). The [brain]/[plasma] ratios were calculated.
Pharmacokinetic modeling was performed using the non-compartmental method based on statistical moments. In this method, exchanges between kinetic spaces are expressed in time. The curves were obtained using R software (Package ggplot2, v3.3.6).

T2 sequence (P08183 whole entry): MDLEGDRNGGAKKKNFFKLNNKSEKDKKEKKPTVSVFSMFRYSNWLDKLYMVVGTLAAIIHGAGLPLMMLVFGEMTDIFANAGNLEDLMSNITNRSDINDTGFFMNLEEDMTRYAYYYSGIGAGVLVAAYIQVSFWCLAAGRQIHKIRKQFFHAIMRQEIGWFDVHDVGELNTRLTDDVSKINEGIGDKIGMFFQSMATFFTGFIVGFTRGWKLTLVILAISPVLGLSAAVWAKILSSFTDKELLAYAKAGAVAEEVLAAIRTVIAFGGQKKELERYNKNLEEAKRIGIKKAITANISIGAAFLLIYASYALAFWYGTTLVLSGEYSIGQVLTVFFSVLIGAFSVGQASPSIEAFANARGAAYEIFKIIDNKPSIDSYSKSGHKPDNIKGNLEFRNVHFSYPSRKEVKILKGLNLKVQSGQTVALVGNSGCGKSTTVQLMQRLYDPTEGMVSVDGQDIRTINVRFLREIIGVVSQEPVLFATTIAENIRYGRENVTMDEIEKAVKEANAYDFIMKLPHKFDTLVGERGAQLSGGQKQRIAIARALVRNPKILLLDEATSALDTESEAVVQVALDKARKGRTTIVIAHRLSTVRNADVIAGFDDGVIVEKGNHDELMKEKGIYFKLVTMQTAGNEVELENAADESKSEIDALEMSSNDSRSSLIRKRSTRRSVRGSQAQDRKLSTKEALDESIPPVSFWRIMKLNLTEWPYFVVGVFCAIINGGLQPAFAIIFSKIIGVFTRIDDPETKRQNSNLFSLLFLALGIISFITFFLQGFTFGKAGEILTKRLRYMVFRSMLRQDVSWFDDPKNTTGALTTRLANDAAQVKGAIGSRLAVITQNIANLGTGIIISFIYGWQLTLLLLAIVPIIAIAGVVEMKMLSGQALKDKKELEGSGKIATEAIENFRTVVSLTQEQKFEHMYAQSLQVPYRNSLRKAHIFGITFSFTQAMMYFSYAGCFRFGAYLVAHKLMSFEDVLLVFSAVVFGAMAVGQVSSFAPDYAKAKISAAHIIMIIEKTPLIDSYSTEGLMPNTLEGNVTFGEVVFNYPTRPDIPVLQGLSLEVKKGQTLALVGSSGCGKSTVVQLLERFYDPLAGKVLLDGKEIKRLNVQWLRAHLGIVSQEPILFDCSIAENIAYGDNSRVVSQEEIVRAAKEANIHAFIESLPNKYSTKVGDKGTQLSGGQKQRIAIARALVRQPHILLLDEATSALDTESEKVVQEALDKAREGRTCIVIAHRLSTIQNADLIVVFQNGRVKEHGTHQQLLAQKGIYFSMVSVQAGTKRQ

## O=C(NCCCNCc1ccccc1)c1ccc(Cl)cc1 [compound 7i-deMe]
[1]
  inhibition at 100 µM: 77%

## CN(CCCNC(=O)c1ccc(Cl)cc1)Cc1ccccc1 [compound 7i]
[2]; pH 7.4, Caco-2, 10 µM, with verapamil, read-out: P-gp substrate, Verapamil, A/B pH7.4/7.4
  Papp A→B at 10 µM: 28 ×10⁻⁶ cm/s
[2]; pH 7.4, Caco-2, 10 µM, with verapamil, read-out: P-gp substrate, Verapamil, B/A pH7.4/7.4
  Papp B→A at 10 µM: 16.9 ×10⁻⁶ cm/s
[2]; Caco-2, pH 7.4/7.4, with verapamil, read-out: P-gp substrate, Verapamil, e-ratio
  efflux ratio at 10 µM: 0.6
[3]; comparison of efflux ratios with/without verapamil
  P-gp substrate (conclusion): not a substrate
[3]; human, pH 7.4, Caco-2, 10 µM, PBS (no verapamil), read-out: P-gp substrate, PBS, A/B pH7.4/7.4
  Papp A→B at 10 µM: 45.8 ×10⁻⁶ cm/s
[3]; human, pH 7.4, Caco-2, 10 µM, PBS (no verapamil), read-out: P-gp substrate, PBS, B/A pH7.4/7.4
  Papp B→A at 10 µM: 11.7 ×10⁻⁶ cm/s
[3]; human, Caco-2, pH 7.4/7.4, PBS (no verapamil), read-out: P-gp substrate, PBS, e-ratio
  efflux ratio at 10 µM: 0.3
[4]
  e-ratio (efflux ratio): 2.3
[5]
  off-target selectivity profile: excellent highly selective profile
[6]
  increase of total clearance, p.o. versus i.v.: 20 times
[6]; in the plasma or in the brain
  C30 after i.v. relative to p.o.: more than 10 times
[6]; i.v.
  CLT: 3.8 mL/min
  CLbrain: 1.8 mL/min
  D (diffusion in the brain): 62% and 61.7%
  MAT: 0 min
  Plasma AUC t^∞/AUC ∞: 0.9
  Brain/Plasma: 2.9
[6]; i.v., brain
  Brain AUC t^∞/AUC ∞: 5.9%
[6]; i.v., mouse plasma, simulated
  Plasma Cmax (simulated): 180 ng/mL
[6]; brain, iv
  Kp at 0.5 h: 3
[6]; brain, iv, i.v., brain, read-out: Brain tmax
  Tmax: ≤ 30 min
[6]; brain, iv, read-out: Brain t1/2 el
  half-life: 96.4 min
[6]; brain, po
  Kp at 0.5 h: 3
[6]; brain, po, p.o., brain, read-out: Brain tmax
  Tmax: ≤ 30 min
[6]; brain, po, read-out: Brain t1/2 el
  half-life: 78.9 min
[6]; iv, brain, read-out: Brain C30
  concentration at 30 min: 234 ng/mL
[6]; plasma, iv
  bioavailability: 100%
[6]; plasma, iv, read-out: Plasma C30
  concentration at 30 min: 79.8 ng/mL
[6]; plasma, iv, i.v., mouse plasma, read-out: Plasma tmax
  Tmax: 0 min
[6]; plasma, iv, read-out: Plasma t1/2 el
  half-life: 44.5 min
[6]; plasma, po
  bioavailability: 5%
[6]; plasma, po, read-out: Plasma C30
  concentration at 30 min: 6.4 ng/mL
[6]; plasma, po, p.o., mouse plasma, read-out: Plasma tmax
  Tmax: < 30 min
[6]; plasma, po, read-out: Plasma t1/2 el
  half-life: 25.5 min
[6]; po, brain, read-out: Brain C30
  concentration at 30 min: 20.7 ng/mL
[6]; p.o.
  CLT: 74.9 mL/min
  CLbrain: 12.8 mL/min
  MAT: 16.5 min
  Plasma AUC t^∞/AUC ∞: 6.1
  Vd: 0.168 L/kg
  Brain/Plasma: 3.2
[6]; p.o., brain
  Brain AUC t^∞/AUC ∞: 7.6%
